Reference: PMC3422668 (Journal of immunology (Baltimore, Md. : 1950), 2012)
“Also recorded” adds a separate entry of the source.

Key:
mAb 64-3-7 = type: binding, murine; settings: SPR, BIAcore T100; graded peptide concentrations 11, 33 and 100 μM; Figure 1B
mAb 64-3-7 Fab = assay: SPR direct binding of soluble 64-3-7 Fab to peptide coupled to a CM5 chip; parameters: species or system murine; settings: similarly coupled peptide surface, data not shown
[1] = target: T1, H-2L^d octamer peptide EPQAPWME, residues 46-53 (mouse); assay: crystal structure
T1 chain: EPQAPWME

[2] = target: T2, H-2L^d heptamer peptide EPQAPWM (residues 46 to 52) (Mus musculus, H-2Ld); assay: SPR
T2 chain: EPQAPWM

[3] = target: T3, H-2L^d 6-mer peptide EPQAPW (Mus musculus, H-2Ld); assay: SPR
T3 chain: EPQAPW

QAPWM was tested, and the “competition for antibody binding to pL^d35-55-coupled surface” value (shortened to “competition for antibody binding”) (mAb 64-3-7) was “fails to block”.

In the case of EPQAPW, the “competition for antibody binding” value (mAb 64-3-7) is reported as “intermediate activity”.

With EPQAPWM the “competition for antibody binding” value (mAb 64-3-7) was “compete effectively”.

In the case of PQAPWM, the “competition for antibody binding” value (mAb 64-3-7) is reported as “intermediate activity; also recorded: only binds weakly”.

RFDSDAENPRYEPRARWMEQE [pK^b35-55] was tested, and the “direct binding of 64-3-7 Fab to peptide-coupled biosensor surface” value (mAb 64-3-7 Fab) was “no detectable binding”.

“SNVREIKNRWRSTVQKLK [control peptide, reference compound]” was tested, and the “direct binding of 64-3-7 Fab to peptide-coupled biosensor surface” value (mAb 64-3-7 Fab) was “no detectable binding”.

B1: Fab fragment of mAb 64-3-7 (Fab, V domains shown)
VH: EVKLVESEGGLVQPGSSMKLSCTASGFTFSDYYMAWVRQVPEKGLEWVANINYDGSSTYYLDSLKGRFIISRDIAKNILYLQMSSLRCEDTATYYCARLTNGYLDVWGAGTTVTVSS
VL: DVVMTQTPLSLPVSLGDQASISCRSSQSLVHSNGNTYLHWYLQKPGQSPNLLIYKVSNRFSGVPDRFSGSGSGTDFTLKISRVEAEDLGVYFCSQSTHVPTFGGGTKLEIK
B1: binds [1].

B2: mAb 64-3-7 (antibody, V domains shown)
VH: EVKLVESEGGLVQPGSSMKLSCTASGFTFSDYYMAWVRQVPEKGLEWVANINYDGSSTYYLDSLKGRFIISRDIAKNILYLQMSSLRCEDTATYYCARLTNGYLDVWGAGTTVTVSS
VL: DVVMTQTPLSLPVSLGDQASISCRSSQSLVHSNGNTYLHWYLQKPGQSPNLLIYKVSNRFSGVPDRFSGSGSGTDFTLKISRVEAEDLGVYFCSQSTHVPTFGGGTKLEIK
B2: binds [2]; binds [3].
